In general, bioavailability refers to dose-corrected exposure relative to a reference, in per cent. The low end stands for little systemic uptake, the high end for much systemic uptake.

These results are taken from patent US20250388571A1, “AMP-ACTIVATED PROTEIN KINASE MODULATOR COMPOUNDS AND USES THEREOF” (Biolexis Therapeutics, Inc., priority 2024, published 2025).

Entries after “also recorded” stand apart in the source; their conditions may differ. Like-named read-outs stand apart in the source and are kept apart here.

The subject of data set [1] is human hepatocytes-THLE-2 cells. Nature of the data set: Glucose uptake assay, THLE-2 cells. It counts as cell-based. As for the experimental part: FIGS. 13-16 show results for glucose update assays in THLE-2 cells (ATCC, cat. No. CRL-2706) when treated with compound I-11 (FIG. 13), compound I-7 (FIG. 14), MK-8722 (FIG. 15), and PF-06409577 (FIG. 16). The THLE-2 cells were starved for 3 hours in high glucose DMEM without FBS, treated with the components noted above in DMEM without FBS/glucose for 1 hour, and glucose uptake was detected using a glucose uptake kit (Promega). The bars show (from left to right) concentrations of 100 μM, 33 μM, 11 μM, 3.7 μM, 1.23 μM, 0.41 μM, 0.14 μM, 0.045 μM, 0.015 μM, 0.005 μM, 0 μM, and insulin.
Human skeletal myoblasts were obtained (Thermofisher; BYU) and cultured in DMEM/F12 medium with 10% FBS. For differentiation, 2% horse serum low glucose DMEM medium was employed for 72 hours. Human cardiomyocytes cells (HCM cells; Promocell) were cultured in myocyte growth medium (Promocell). Human preadipocyte HWP-c cells (Promocell) were obtained from upper arm of diabetic II donor. Human preadipocyte HWP-c cells (Promocell) were obtained from abdomen of diabetic II donor. For differentiating human preadipocytes, cells were cultured in preadipocyte growth medium to total confluency stage. The growth medium was replaced with preadipocyte differentiation medium for 72 hours, then changed to PromoCell adipocyte nutrition medium to complete the differentiation process. THLE-2 cells were cultured in BEGM from Lonza/Clonetics Corporation, Walkersville, MD 21793 (BEGM Bullet Kit; CC3170). HepG2, L6 and C2Cl2 cells were cultured in EMEM medium.
After differentiation myoblasts, preadipocyte cells were starved by removing the medium and adding 100 μL DMEM without serum. The medium was then replaced with 100 μL DMEM±1 μM insulin at indicated concentration of representative compounds without serum or glucose. The cells were then incubated for 1 hour at 37° C. in 5% CO2. The cells were then removed from the medium and 50 μL of 0.1 mM 2DG in PBS was added. Cells were incubated for 30 minutes at 25° C. 25 μL of Stop Buffer was added and samples were mixed. 25 μL of Neutralization Buffer was then added and mixed. 100 μL of 2DG6P Detection Reagent was then added and mixed. Samples were then incubated for 1 hour at 25° C. Luminescence was then recorded with 0.3-1 second integration on a luminometer.

Data set [2] concerns AMPK signal pathway in human cardiac myocytes (HCM). Nature of the data set: Western blot assay, human cardiomyocytes. Format: cell-based.
The test system of data set [3] is AMPK signaling in human liver cells. Nature of the data set: Western blot assay, human liver cells (Biological Example 1). It counts as cell-based.
Procedure: After treatment, cells were analyzed using a glucose uptake assay and a western blot assay for human skeletal myoblasts, human cardiomyocytes cells, human hepatocytes-THLE-2 cells, preadipocyte HWP-c cells.
Samples for immunoblotting studies were prepared for electrophoresis by adding in a final concentration of 1× Laemmli loading buffer (supplemented with 5% 2-mercaptoethanol). Samples were then electrophorized by SDS-PAGE (4-15% or 4-20% Criterion TGX Precast gel, Bio-Rad) at a constant voltage within the range of 140V. Proteins were transferred to a nitrocellulose membrane (Bio-Rad) using the Trans-Blot Turbo transfer system (Bio-Rad). Membranes were blocked with 5% BSA in TBST for a minimum of 1 hour at room temperature before incubating with the following primary antibodies: • Phospho-AMPKα (Thr172) (40H9) Rabbit mAb (CST, cat no: 2535S), • AMPKα Antibody (CST, cat no: 2532S) • Phospho-Raptor (Ser792) Antibody (CST, cat no: 2083S) • Raptor (24C12) Rabbit mAb (CST, cat no: 2280S) • Phospho-Acetyl-CoA Carboxylase (Ser79) Antibody (CST, cat no: 3661S) • Acetyl-CoA Carboxylase Antibody (CST, cat no: 3662S) • AMPKα2 Antibody (CST, cat no: 2757S) • AMPKβ1 antibody (CST, cat no: 12063) • AMPKβ2 Antibody (CST, CST, cat no: 4148S) • AMPKγ3 Antibody (CST, cat no: 2550S).
A short description of data set [4]: PK oral bioavailability experiment, rat. Format: in vivo, male Wistar rat. The method, then: A total of 18 male Wistar rats were allotted for the study. Animals were allotted in to 2 groups of 9 rat per each group. In each group, first set of three animals were used for PK study, next set of three and followed by other set of three animals were used for 0.5 h and 1 h brain, CSF, and blood collection purpose for intravenous and oral groups, respectively. On day of dosing all the animals were fasted overnight.
Approximately 0.3 mL of blood sample from each animal was collected via jugular vein at predetermined time points at 0.083 (only IV), 0.25, 0.5, 1, 2, 4, 6, 8 and 24 h intervals in pre-labeled Eppendorf tubes containing anticoagulant K2EDTA (20 μL per mL of blood). Blood sample was centrifuged at 5000 rpm for 10 min under refrigeration (2-4° C.) to obtain plasma. For brain and CSF uptake study, after 0.5 h and 1 h CSF and whole brain was withdrawn, and brain tissue was homogenized as a terminal sampling. Blood samples were centrifuged under refrigeration (2-4° C.) within 0.5 h to obtain plasma. The separated plasma samples were collected in pre labeled tubes within 60 min of separation and stored at −20° C. up to 24 h. Post 24 h sample collection, all plasma samples were transferred to deep freezer custodian to store below or at −70° C. till shipment.
Brain tissues were blotted and dried and then transferred to 15 mL falcon tubes. Initially all tissue samples were stored at −20±3° C. Later, all brain tissue samples were homogenized with PBS at 1:4 ratio and the Brain homogenate was transferred to Deep freezer (−70±10° C.) and stored until bioanalysis.
The PK parameters were evaluated using Phoenix WinNonlin® Ent-Version 8.3 by non-compartmental analysis.

A short description of data set [5]: in vivo. Format: in vivo. As to conditions: dog. As for the experimental part: A total of 3 animals were segregated in to one group and each animal received oral dose followed by intravenous infusion (15 minutes) as a cross over design with 7 days of no dose interval between periods. […] Similarly, in period 2 after 7 days of no dose interval, animals were received intravenous infusion for 15 min at a dose of 1 mg/kg via saphenous vein at a dose volume of 1 mL/kg, each dog was observed after administration of the test item for presence or absence of clinical signs.
A total of 11 time points for oral and 12 blood samples for IV per each animal were collected, approximately 1 mL were collected from each dog in pre-labeled Eppendorf tubes containing 20 μL/mL of 200 mM K2 EDTA. Blood was withdrawn at scheduled time points via cephalic vein in pre-labelled Eppendorf tubes. The pre-dose blood sample was collected before to drug administration. Post dose samples were collected within stipulated time. The blood samples were kept on crushed ice to maintain the temperature until centrifugation. Plasma was separated and stored under −70° C. […] The PK parameters were evaluated using Phoenix WinNonlin® Ent-Version 8.3 by non-compartmental analysis.

A short description of data set [6]: Plasma, liver and adipose tissue concentration in db/db mice, day 36. As to conditions: post 4 hours dosing on day 36; for concentration at 4 h: male, db/db C57BL/6, mouse, oral. It counts as in vivo, mice (Mus musculus; db/db C57BL/6). As for the experimental part: A mixture of DMSO (2%), Cremophor EL (2%), Tween 80 (1%), 0.5% methyl cellulose (35%), and water (60%) was used for the formulation. Doses were prepared at concentrations of 30 and 50 mg/kg. Administration was oral, daily for 36 days. Male mice (Mus musculus; db/db C57BL/6) aged 8-9 weeks and weighing less than or equal to 40 grams were used for the study. Groups were assigned 10 mice per group.
G2 and G3 plasma, liver and adipose tissue samples were collected post 4 hours dosing on day 36.

Turning to `O=c1[nH]c(-c2c[nH]c3cc(F)c(-c4ccc(C5(O)CCC5)cc4)c(F)c23)no1` [Compound I-11, 3-(4,6-difluoro-5-(4-(1-hydroxycyclobutyl)phenyl)-1H-indol-3-yl)-1,2,4-oxadiazol-5(4H)-one], in data set [1], the glucose uptake entry is given as “induced glucose uptake; also recorded: dosage-dependent manner”. For the same molecule, the “p-ACC/p-AMPK and AMPKα2β2γ3 expression” value in data set [2] is listed as “did not activate”. For the same molecule, in data set [3], the AMPK signaling activation entry was “dose-dependent manner”. Also, the “systemic exposure following oral administration” value in data set [4] (5 mg/kg oral) is listed as “low systemic exposure”. Moreover, in data set [4] (0.5 h and 1 h), the “concentrations in brain tissue” value is given as “no concentrations in brain tissue”. The bioavailability in data set [4] (male, Wistar, plasma, 5 mg/kg oral vs 1 mg/kg intravenous) turned out to be 6%; in data set [5] (male, Beagle, plasma, 5 mg/kg oral compared with intravenous infusion (1 mg/kg)), 5.27 ± 2.94%. Also, the “systemic exposure, oral administration” value in data set [5] (5 mg/kg oral) is “low systemic exposure”. In addition, the “Liver (ng/mL), PK concentration, Average” value in data set [6] (30 mg/kg) and in data set [6] (50 mg/kg) was “BLQ” throughout. In addition, the concentration at 4 h in data set [6] (adipose tissue, 30 mg/kg, read-out: Adipose tissue (ng/mL), PK concentration, Average) is 19.5 ng/mL; in data set [6] (adipose tissue, 50 mg/kg, read-out: Adipose tissue (ng/mL), PK concentration, Average), 11 ng/mL; in data set [6] (plasma, 30 mg/kg, read-out: Plasma (ng/mL), PK concentration, Average), 244 ng/mL; in data set [6] (plasma, 50 mg/kg, read-out: Plasma (ng/mL), PK concentration, Average), 197 ng/mL.
